# Experimental data from patent publication US9469650B2, “Melampomagnolide B derivatives” (BOARD OF TRUSTEES OF THE UNIVERSITY OF ARKANSAS, priority 2013, dated 2016).
# Tests used:
# OVCAR-8 = assay: panel of 60 human tumor cell lines, growth inhibition (Ovarian Cancer); conditions: Homo sapiens; for GI50: OVCAR-8; for CC50: OVCAR-8, read-out: LC50; for IC (TGI): OVCAR-8, read-out: TGI
# IGROV1 = assay: as above; conditions: Homo sapiens; for GI50: IGROV-1; for CC50: IGROV-1, read-out: LC50; for IC (TGI): IGROV-1, read-out: TGI
# MDA-MB-231/ATCC = assay: panel of 60 human tumor cell lines, growth inhibition (Breast Cancer); conditions: Homo sapiens; for GI50: MDA-MB-231; for CC50: MDA-MB-231, read-out: LC50; for IC (TGI): MDA-MB-231, read-out: TGI
# OVCAR-5 = assay: panel of 60 human tumor cell lines, growth inhibition (Ovarian Cancer); conditions: Homo sapiens; for GI50: OVCAR-5; for CC50: OVCAR-5, read-out: LC50; for IC (TGI): OVCAR-5, read-out: TGI
# CAKI-1 = assay: panel of 60 human tumor cell lines, growth inhibition (Renal Cancer); conditions: Homo sapiens; for GI50: CAKI-1; for CC50: CAKI-1, read-out: LC50; for IC (TGI): CAKI-1, read-out: TGI
# HT29 = assay: panel of 60 human tumor cell lines, growth inhibition (Colon Cancer); conditions: for Percent Growth: HT29; for GI50 / CC50 / IC (TGI): Homo sapiens; for GI50: HT-29; for CC50: HT-29, read-out: LC50; for IC (TGI): HT-29, read-out: TGI
# M14 = assay: panel of 60 human tumor cell lines, growth inhibition (Melanoma); conditions: Homo sapiens; for GI50: M14; for CC50: M14, read-out: LC50; for IC (TGI): M14, read-out: TGI
# SK-OV-3 = assay: panel of 60 human tumor cell lines, growth inhibition (Ovarian Cancer); conditions: Homo sapiens; for GI50: SK-OV-3; for CC50: SK-OV-3, read-out: LC50; for IC (TGI): SK-OV-3, read-out: TGI
# LOX IMVI = assay: panel of 60 human tumor cell lines, growth inhibition (Melanoma); conditions: Homo sapiens; for GI50: NCI five dose; for CC50: read-out: LC50; for IC (TGI): read-out: TGI
# SW-620 = assay: panel of 60 human tumor cell lines, growth inhibition (Colon Cancer); conditions: Homo sapiens; for GI50: SW-620, SW-620, NCI five dose; for CC50: SW-620, read-out: LC50; for IC (TGI): SW-620, read-out: TGI
# TK-10 = assay: panel of 60 human tumor cell lines, growth inhibition (Renal Cancer); conditions: Homo sapiens; for GI50: TK-10, TK-10, NCI five dose; for CC50: TK-10, read-out: LC50; for IC (TGI): TK-10, read-out: TGI
# MCF7 = assay: panel of 60 human tumor cell lines, growth inhibition (Breast Cancer); conditions: Homo sapiens; for GI50: MCF7, MCF7, NCI five dose; for CC50: MCF7, read-out: LC50; for IC (TGI): MCF7, read-out: TGI
# SF-268 = assay: panel of 60 human tumor cell lines, growth inhibition (CNS Cancer); conditions: Homo sapiens; for GI50: SF-268; for CC50: SF-268, read-out: LC50; for IC (TGI): SF-268, read-out: TGI
# CCRF-CEM = assay: panel of 60 human tumor cell lines, growth inhibition (Leukemia); conditions: Homo sapiens; for GI50: NCI five dose; for CC50: read-out: LC50; for IC (TGI): read-out: TGI
# NCI-H522 = assay: panel of 60 human tumor cell lines, growth inhibition (Non-Small Cell Lung Cancer); conditions: Homo sapiens; for GI50: NCI-H522; for CC50: NCI-H522, read-out: LC50; for IC (TGI): NCI-H522, read-out: TGI
# A549/ATCC = assay: as above; conditions: Homo sapiens; for GI50: A549; for CC50: A549, read-out: LC50; for IC (TGI): A549, read-out: TGI
# SK-MEL-2 = assay: panel of 60 human tumor cell lines, growth inhibition (Melanoma); conditions: Homo sapiens; for GI50: SK-MEL-2; for CC50: SK-MEL-2, read-out: LC50; for IC (TGI): SK-MEL-2, read-out: TGI
# NCI-H23 = assay: panel of 60 human tumor cell lines, growth inhibition (Non-Small Cell Lung Cancer); conditions: Homo sapiens; for GI50: NCI-H23; for CC50: NCI-H23, read-out: LC50; for IC (TGI): NCI-H23, read-out: TGI
compound,measurement,setting,value
C=C1C(=O)O[C@H]2[C@H]1CC/C(COC(=O)NCCCCCCO)=C\CC[C@@]1(C)O[C@@H]21 [JVM 2-31],GI50,OVCAR-8,10.2 µM
same,CC50,OVCAR-8,76 µM
same,IC (TGI),OVCAR-8,27.9 µM
same,GI50,IGROV1,17.4 µM
same,CC50,IGROV1,80.7 µM
same,IC (TGI),IGROV1,37.5 µM
same,GI50,MDA-MB-231/ATCC,8.01 µM
same,CC50,MDA-MB-231/ATCC,57.9 µM
same,IC (TGI),MDA-MB-231/ATCC,20.3 µM
same,GI50,OVCAR-5,13.4 µM
same,CC50,OVCAR-5,64.1 µM
same,IC (TGI),OVCAR-5,29.3 µM
same,GI50,CAKI-1,3.44 µM
same,CC50,CAKI-1,40.2 µM
same,IC (TGI),CAKI-1,15.5 µM
same,Percent Growth,HT29; Log10 Concentration −4.0,−61%
same,Percent Growth,HT29; Log10 Concentration −5.0,93%
same,Percent Growth,HT29; Log10 Concentration −6.0,102%
same,Percent Growth,HT29; Log10 Concentration −7.0,104%
same,Percent Growth,HT29; Log10 Concentration −8.0,101%
same,GI50,HT29,19 µM
same,CC50,HT29,84.8 µM
same,IC (TGI),HT29,40.1 µM
same,GI50,M14,4.5 µM
same,CC50,M14,46.7 µM
same,IC (TGI),M14,17.4 µM
same,GI50,SK-OV-3,28.6 µM
same,CC50,SK-OV-3,> 100 µM
same,IC (TGI),SK-OV-3,69.9 µM
same,GI50,LOX IMVI,3.45 µM
same,CC50,LOX IMVI,42.1 µM
same,IC (TGI),LOX IMVI,13.1 µM
same,GI50,SW-620,2.93 µM
same,CC50,SW-620,74 µM
same,IC (TGI),SW-620,13.3 µM
same,GI50,TK-10,2.64 µM
same,CC50,TK-10,33.3 µM
same,IC (TGI),TK-10,9.68 µM
same,GI50,MCF7,4.92 µM
same,CC50,MCF7,76.3 µM
same,IC (TGI),MCF7,12 µM
same,GI50,SF-268,8.59 µM
same,CC50,SF-268,73 µM
same,IC (TGI),SF-268,26 µM
same,GI50,CCRF-CEM,2.78 µM
same,CC50,CCRF-CEM,> 100 µM
same,IC (TGI),CCRF-CEM,10.7 µM
same,GI50,NCI-H522,1.7 µM
same,CC50,NCI-H522,8.15 µM
same,IC (TGI),NCI-H522,3.72 µM
same,GI50,A549/ATCC,17 µM
same,CC50,A549/ATCC,85.2 µM
same,IC (TGI),A549/ATCC,38 µM
same,GI50,SK-MEL-2,14.4 µM
same,CC50,SK-MEL-2,70.4 µM
same,IC (TGI),SK-MEL-2,31.9 µM
same,GI50,NCI-H23,13.5 µM
same,CC50,NCI-H23,72 µM
same,IC (TGI),NCI-H23,31.1 µM
C=C1C(=O)O[C@H]2[C@H]1CC/C(COC(=O)OCCN(C)C)=C\CC[C@@]1(C)O[C@@H]21 [JVM 2-35],GI50,OVCAR-8,13.5 µM
same,CC50,OVCAR-8,96 µM
same,IC (TGI),OVCAR-8,36 µM
same,GI50,IGROV1,17.7 µM
same,CC50,IGROV1,> 100 µM
same,IC (TGI),IGROV1,44 µM
same,GI50,MDA-MB-231/ATCC,5.86 µM
same,CC50,MDA-MB-231/ATCC,56.9 µM
same,IC (TGI),MDA-MB-231/ATCC,21.3 µM
same,GI50,OVCAR-5,13.1 µM
same,CC50,OVCAR-5,57 µM
same,IC (TGI),OVCAR-5,27.3 µM
same,GI50,CAKI-1,3.22 µM
same,CC50,CAKI-1,39.9 µM
same,IC (TGI),CAKI-1,15.6 µM
same,Percent Growth,HT29; Log10 Concentration −4.0,−29%
same,Percent Growth,HT29; Log10 Concentration −5.0,91%
same,Percent Growth,HT29; Log10 Concentration −6.0,98%
same,Percent Growth,HT29; Log10 Concentration −7.0,99%
same,Percent Growth,HT29; Log10 Concentration −8.0,98%
same,GI50,HT29,21.8 µM
same,CC50,HT29,> 100 µM
same,IC (TGI),HT29,57.2 µM
same,GI50,M14,3.71 µM
same,CC50,M14,45.6 µM
same,IC (TGI),M14,16.4 µM
same,GI50,SK-OV-3,27.5 µM
same,CC50,SK-OV-3,> 100 µM
same,IC (TGI),SK-OV-3,83.3 µM
same,GI50,LOX IMVI,5.16 µM
same,CC50,LOX IMVI,47.5 µM
same,IC (TGI),LOX IMVI,18.2 µM
same,GI50,SW-620,3.58 µM
same,CC50,SW-620,50.6 µM
same,IC (TGI),SW-620,15 µM
same,GI50,TK-10,3.92 µM
same,CC50,TK-10,43.8 µM
same,IC (TGI),TK-10,15.1 µM
same,GI50,MCF7,2.92 µM
same,CC50,MCF7,56.3 µM
same,IC (TGI),MCF7,13 µM
same,GI50,SF-268,11.7 µM
same,CC50,SF-268,69.3 µM
same,IC (TGI),SF-268,28.5 µM
same,GI50,CCRF-CEM,2.1 µM
same,CC50,CCRF-CEM,> 100 µM
same,IC (TGI),CCRF-CEM,6.14 µM
same,GI50,NCI-H522,1.5 µM
same,CC50,NCI-H522,9.57 µM
same,IC (TGI),NCI-H522,3.79 µM
same,GI50,A549/ATCC,16.3 µM
same,CC50,A549/ATCC,71.6 µM
same,IC (TGI),A549/ATCC,34.2 µM
same,GI50,SK-MEL-2,15.2 µM
same,CC50,SK-MEL-2,86.6 µM
same,IC (TGI),SK-MEL-2,36.3 µM
same,GI50,NCI-H23,16 µM
same,CC50,NCI-H23,91 µM
same,IC (TGI),NCI-H23,38.2 µM
